# Primed or numbered codes have the meaning given here. Ends that are not written are not given here. Peptide text beside a SMILES is read from it. * marks the point of attachment. FITC = O=C1OC2(c3ccc(O)cc3Oc3cc(O)ccc32)c2ccc(NC(=S)*)cc21; Biotin = O=C1N[C@H]2[C@H](CS[C@H]2CCCCC(=O)*)N1; FITC′ = fluorescein isothiocyanate
# T1: Cowpea mosaic virus (CPMV) (Cowpea mosaic virus), P03599
# T1 chain 1: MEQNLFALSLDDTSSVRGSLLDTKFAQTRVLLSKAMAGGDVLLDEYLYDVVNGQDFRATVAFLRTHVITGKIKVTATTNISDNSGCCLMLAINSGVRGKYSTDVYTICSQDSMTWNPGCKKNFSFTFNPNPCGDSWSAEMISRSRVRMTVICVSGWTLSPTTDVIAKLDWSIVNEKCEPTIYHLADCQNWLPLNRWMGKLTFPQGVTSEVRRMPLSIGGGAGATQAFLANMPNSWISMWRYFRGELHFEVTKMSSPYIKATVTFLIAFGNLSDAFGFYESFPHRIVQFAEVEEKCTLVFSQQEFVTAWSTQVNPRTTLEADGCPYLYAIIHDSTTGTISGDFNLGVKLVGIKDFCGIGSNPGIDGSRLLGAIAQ
# T1 chain 2: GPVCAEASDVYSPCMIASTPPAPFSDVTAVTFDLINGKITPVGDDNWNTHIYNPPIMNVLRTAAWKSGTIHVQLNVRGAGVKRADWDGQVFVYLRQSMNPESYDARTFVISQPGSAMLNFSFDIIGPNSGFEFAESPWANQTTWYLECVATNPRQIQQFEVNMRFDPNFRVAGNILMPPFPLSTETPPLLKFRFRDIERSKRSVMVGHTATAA
# Key:
# [1] = biological target: CPMV; assay: Competitive ELISA between synthetic CBP peptides and monoclonal phage MPSEF; assay type: binding, Cowpea mosaic virus; conditions: for Kd: competition binding ELISA against MPSEF, read-out: dissociation constant KD
# Protocol: 5 μg of CPMV (in 0.1 M bicarbonate buffer, pH 8.6) was coated into each well of a Nunc Maxisorp™ flat-bottom 96-well plate and incubated overnight at 4° C. 2% (w/v) BSA was also coated to serve as negative control. Next day, the plate was blocked with 2% (w/v) BSA and incubated at rt with shaking at 800 rpm for 1 h. Subsequently, the plate was washed thrice with 0.1% TBST for 1 min. 100 μL of amplified phage from the last biopanning cycle was added into each well followed by incubation at rt with shaking at 800 rpm for 1 h. Later, the plate was washed thrice with 0.5% TBST for 5 min. 100 μL of 1:500 dilution of HRP-conjugated anti-M monoclonal antibody (Abcam ab50370) was added and incubated at rt for 1 h with shaking at 8 rpm. The plate was again washed thrice with 0.5% TBST for 5 min followed by adding 100 μL of tetramethylbenzidine (TMB) substrate (Thermo Scientific Pierce) into each well. The plate was incubated at dark for 10 min and the absorbance was measured at 370 nm using an Infinite 200 Rx plate reader (Tecan Life Sciences) with 25 flashes in 96-well flat-bottom plate mode. Monoclonal phages with at least 0.3 difference in absorbance value between CPMV and BSA were subjected for DNA sequencing (Eurofins Genomics).
# Competitive ELISA was performed as mentioned in ‘Monoclonal ELISA’ with modifications. Two-fold serial dilutions of CPMV peptide (0.500 μg, 0.250 μg, 0.125 μg, 0.063 μg, 0.031 μg, 0.016 μg, 0.008 μg, 0.004 μg, 0.002 μg) were added separately into the well together with 10^9 pfu of monoclonal phages. The reaction after incubation with TMB substrate was stopped with 50 μL of 2 N H2SO4. Colorimetric detection was carried out by measurement at 450 nm using an Infinite 200 Rx plate reader (Tecan Life Sciences) with 25 flashes in 96-well flat-bottom plate mode.
# To determine the dissociation constant KD, competition binding ELISAs were set up. Here binding of synthetic CBPs (used in a dilution series) to CPMV was competed against MPSEF (used as constant amount). Phage MPSEF was detected by HRP-conjugated anti-M13 monoclonal antibody and measured at OD450 nm. CPMV bound MPSEF (OD450 nm) is inversely proportionate to the amount of peptide loaded for competition. The amount of MPSEF binding to CPMV reduced with the increasing amount of synthetic peptides, subsequently yielded lower absorbance value (FIG. 4G and FIG. 4H). […] Different modes of peptide modification resulted different IC50 and KD values despite having the exact same sequence.
# [2] = biological target: p185HER2/neu (Homo sapiens, UniProt P04626); conditions: binding to p185HER2/neu; cited from earlier work
# [3] = system: CPMV; assay: Peptide ELISA of CBP-biotin on streptavidin plate; assay type: binding, Cowpea mosaic virus; conditions: 5 μg CPMV, vs. control without CPMV, p<0.0001 (FIG. 4E)
# Protocol: The plate was blocked with 2% (w/v) BSA followed by three washings with 0.1% TBST for 1 min per wash. 5 μg of CPMV was added for binding and incubated for 1 h at rt with shaking at 8 rpm. Then the plate was washed thrice with 0.5% TBST for 5 min each wash. 100 μL of anti-CPMV rabbit polyclonal antibodies (1:500 dilution) was added to the wells followed by incubation at rt for 1 h with shaking at 800 rpm. Following three washing steps using 0.5% TBST for 5 min, 100 μL of HRP conjugated goat anti-rabbit antibodies (1:5000 dilution; Pacific Immunology) was added to the wells and incubated at rt for 1 h with shaking at 800 rpm. Finally, the plate was washed thrice with 0.5% TBST followed by adding 100 μL of TMB substrate (Thermo Scientific Pierce) into each well. The plate was incubated in the dark for 5-10 min and the reaction was stopped with 50 μL of 2N H2SO4. Absorbance was measured at 450 nm using an Infinite 200 Rx plate reader (Tecan Life Sciences) with 25 flashes in 96-well flat-bottom plate mode.
# Next, Applicant performed a series of enzyme-linked immunosorbent assays (ELISAs) using the CBP-FITC and CBP-biotin to further probe their binding affinity to CPMV. CBP-biotin was coated onto a streptavidin-functionalized plate, this was followed by incubation with CPMV (CPMV was omitted for the control) (FIG. 4E). […]
# [4] = system: CPMV coat proteins (S and L protein); assay: Modified western blot of CBP-biotin on denatured CPMV coat proteins; assay type: binding, Cowpea mosaic virus; conditions: denatured S and L protein on nitrocellulose, streptavidin HRP (FIG. 3C)
# Protocol: 10 μg of CPMV was loaded onto a NuPage™ 12% bis-tris gel (Thermo Fisher Scientific) and electrophoresed for 40 min at 200 V. Proteins were then blotted onto Amersham Protran 0.45 Nitrocellulose membrane (GE Healthcare) at 25 V for 2 h. The membrane was then blocked with 5% (w/v) BSA for 1 h at rt with gentle shaking. Subsequently, the membrane was washed thrice with 0.5% TBST for 1 min. 1 μg/mL of CPMV-biotin peptide was added to the membrane for 1 h incubation at rt. The membrane was then washed with 0.5% TBST for min. 100 μL of 1:500 dilution of HRP-conjugated anti-streptavidin monoclonal antibody (Abcam ab7403) was added and incubated at rt for 1 h. Following three washes with 0.5% TBST, the membrane was developed with DAB substrate kit, peroxidase HRP (Vector Laboratories) for 5-10 min. The DAB reagent was drained off and the bands were documented with ProteinSimple FluorChem®.
# [5] = system: CPMV; assay: Native agarose gel electrophoresis of FITC peptides with CPMV; assay type: binding, Cowpea mosaic virus; conditions: 1.2% agarose gel after dual-purification
# Protocol: 10 μg of FITC peptide conjugated CPMV was loaded onto a 1.2% (w/v) TAE agarose gel. 10 μg of CPMV and 1 μg of free CPMV-FITC peptide was loaded as control. The samples were electrophoresed at 110 V for 40 min.
# The dual functional CBP-AHNP peptide was synthesized by fusing AHNP to the C-terminus of the CBP domain. A control peptide (*AHNP) without the CBP domain was also synthesized; both peptides were modified with a FITC label at their C terminus. CPMV-CBP-AHNP and controls were characterized by native agarose gel electrophoresis as described above.
# [6] = biological target: T1, Cowpea mosaic virus (CPMV) (Cowpea …); assay: competitive ELISA against MPSEF phage (10^9 pfu) on coated CPMV
# [7] = biological target: T1, Cowpea mosaic virus (CPMV) (Cowpea …); assay: from competition binding ELISA against MPSEF phage on coated CPMV
# [8] = biological target: T1, Cowpea mosaic virus (CPMV) (Cowpea …); assay: UV/visible spectroscopy of the purified complex (500-molar excess of peptide)
# [9] = peptide dilution series competed against constant MPSEF phage for CPMV, OD450 nm
molecule,measurement,setting,value
CC(C)[C@H](NC(=O)[C@H](CCCNC(=N)N)NC(=O)[C@H](Cc1c[nH]c2ccccc12)NC(=O)CN)C(=O)N[C@@H](CO)C(=O)N[C@@H](CCC(=O)O)C(=O)N[C@@H](Cc1ccccc1)C(=O)NCC(=O)NCC(=O)NCC(=O)N[C@@H](CO)C(=O)N[C@@H](CCCCNC(=S)Nc1ccc2c(c1)C(=O)OC21c2ccc(O)cc2Oc2cc(O)ccc21)C(=O)O [CBP-FITC] (H-GWRVSEFGGGSK(FITC)-OH; N-terminus and C-terminus assumed),Kd,[1],~0.7 µM
same,half maximal inhibition concentration (IC50),[1]; [9],0.56 µg
"FCDGFYACYMDV [AHNP, cyclic peptide derived from monoclonal antibody trastuzumab, HER2 ligand]",Kd,[2],0.3 µM
CC(C)[C@H](NC(=O)[C@H](CCCNC(=N)N)NC(=O)[C@H](Cc1c[nH]c2ccccc12)NC(=O)CN)C(=O)N[C@@H](CO)C(=O)N[C@@H](CCC(=O)O)C(=O)N[C@@H](Cc1ccccc1)C(=O)NCC(=O)NCC(=O)NCC(=O)N[C@@H](CO)C(=O)N[C@@H](CCCCNC(=O)CCCC[C@@H]1SC[C@@H]2NC(=O)N[C@@H]21)C(=O)O [CBP-biotin] (H-GWRVSEFGGGSK(Biotin)-OH; N-terminus and C-terminus assumed),CPMV binding in ELISA,[3],consistent with CPMV binding
same,Kd,[1],~0.007 µM
same,half maximal inhibition concentration (IC50),[1]; [9],0.17 µg
same,IC50,"[1]; peptide dilution series competed against constant MPSEF phage for CPMV, OD450 nm, read-out: half maximal inhibition concentration (IC50)",1.14 µM
same,binding to CPMV coat proteins in western blot,[4],bound to the CPMV coat proteins
"N-KKKKKKKKDDDD-FCDGFYACYMDVK/FITC/-C (KKKKKKKKDDDDFCDGFYACYMDVK; not fully specified (C-terminus, bridges); cysteine pairing not given here; also: FITC label at C-terminal Lys) [*AHNP, control peptide without the CBP domain, FITC label at C terminus, reference compound]",labeling of CPMV seen by native agarose gel electrophoresis (FITC signal with RNA and protein band),[5],no non-specific interaction
"N-GWRVSEF-KKKKKKKKDDDD-FCDGFYACYMDVK/FITC/-C (GWRVSEFKKKKKKKKDDDDFCDGFYACYMDVK; not fully specified (C-terminus, bridges); cysteine pairing not given here; also: FITC label at C-terminal Lys) [CBP-AHNP, dual functional peptide, AHNP fused to the C-terminus of the CBP domain, FITC label]",labeling of CPMV seen by native agarose gel electrophoresis (FITC signal with RNA and protein band),[5],successful labeling
GWRVSEFGGGSK-biotin (not fully specified (residue 12)) [CBP-biotin (N-…/biotin/-C)],IC50,[6],1.14 µM
same,Kd,[7],0.007 µM
GWRVSEFGGGSK-{FITC′} (not fully specified (residue 12)) [CBP-FITC (N-…/FITC/-C)],IC50,[6],3.34 µM
same,Kd,[7],0.7 µM
same,CBP-FITC peptides per CPMV particle (peptides per CPMV particle),[8],6

# — US20240261429A1, “CPMV BINDING PEPTIDE” (The Regents of the University of California, priority 2021, published 2024)
